Tests used:
[1] = Pharmacokinetic analysis, single oral dose in rat; conditions: in vivo, single oral dose of 20 mg/kg
[2] = tested on: HCV replicon RNA in Huh 11-7 cell line; assay: Cell-Based Replicon Assay; conditions: Hepatitis C virus, 96 h; Huh 11-7 cells, 4 days
Method: Quantification of HCV replicon RNA (HCV Cell Based Assay) is accomplished using the Huh 11-7 cell line (Lohmann, et al Science 285:110-113, 1999). Cells are seeded at 4×10^3 cells/well in 96 well plates and fed media containing DMEM (high glucose), 10% fetal calf serum, penicillin-streptomycin and non-essential amino acids. Cells are incubated in a 7.5% CO2 incubator at 37° C. At the end of the incubation period, total RNA is extracted and purified from cells using Ambion RNAqueous 96 Kit (Catalog No. AM1812). To amplify the HCV RNA so that sufficient material can be detected by an HCV specific probe (below), primers specific for HCV (below) mediate both the reverse transcription of the HCV RNA and the amplification of the cDNA by polymerase chain reaction (PCR) using the TaqMan One-Step RT-PCR Master Mix Kit (Applied Biosystems catalog no. 4309169). The nucleotide sequences of the RT-PCR primers, which are located in the NS5B region of the HCV genome, are the following:
Detection of the RT-PCR product is accomplished using the Applied Biosystems (ABI) Prism 7500 Sequence Detection System (SDS) that detects the fluorescence that is emitted when the probe, which is labeled with a fluorescence reporter dye and a quencher dye, is degraded during the PCR reaction. The increase in the amount of fluorescence is measured during each cycle of PCR and reflects the increasing amount of RT-PCR product. Specifically, quantification is based on the threshold cycle, where the amplification plot crosses a defined fluorescence threshold. […] The data is analyzed using the ABI SDS program version 1.7. […]
The RT-PCR product was detected using the following labeled probe: […]
To normalize the data to an internal control molecule within the cellular RNA, RT-PCR is performed on the cellular messenger RNA glyceraldehyde-3-phosphate dehydrogenase (GAPDH). […] GAPDH RT-PCR is performed on the same RNA sample from which the HCV copy number is determined. […] The ratio of HCV/GAPDH RNA is used to calculate the activity of compounds evaluated for inhibition of HCV RNA replication. […]

[3] = target: full-length NS3 HCV protease 1b tethered with NS4A cofactor (Hepatitis C virus genotype 1b, UniProt Q9WMX2); assay: NS3/NS4a Protease Enzyme Assay; type: biochemical
Method: HCV protease activity and inhibition is assayed using an internally quenched fluorogenic substrate. A DABCYL and an EDANS group are attached to opposite ends of a short peptide. Quenching of the EDANS fluorescence by the DABCYL group is relieved upon proteolytic cleavage. Fluorescence is measured with a Molecular Devices Fluoromax (or equivalent) using an excitation wavelength of 355 nm and an emission wavelength of 485 nm.
The assay is run in Corning white half-area 96-well plates (VWR 29444-312 [Corning 3693]) with full-length NS3 HCV protease 1b tethered with NS4A cofactor (final enzyme concentration 1 to 15 nM). The assay buffer is complemented with 10 μM NS4A cofactor Pep 4A (Anaspec 25336 or in-house, MW 1424.8). RET S1 (Ac-Asp-Glu-Asp(EDANS)-Glu-Glu-Abu-[COO]Ala-Ser-Lys-(DABCYL)-NH2, AnaSpec 22991, MW 1548.6) is used as the fluorogenic peptide substrate. The assay buffer contains 50 mM Hepes at pH 7.5, 30 mM NaCl and 10 mM BME. The enzyme reaction is followed over a 30 minutes time course at room temperature in the absence and presence of inhibitors.
The peptide inhibitors HCV Inh 1 (Anaspec 25345, MW 796.8) Ac-Asp-Glu-Met-Glu-Glu-Cys-OH, [−20° C.] and HCV Inh 2 (Anaspec 25346, MW 913.1) Ac-Asp-Glu-Dif-Cha-Cys-OH, are used as reference compounds.
IC50 values are calculated using XLFit in ActivityBase (IDBS) using equation 205: y=A+((B−A)/(1+((C/x)^D))).

Chain of full-length NS3 HCV protease 1b tethered with NS4A cofactor (Q9WMX2 1027-1657, other chains not shown): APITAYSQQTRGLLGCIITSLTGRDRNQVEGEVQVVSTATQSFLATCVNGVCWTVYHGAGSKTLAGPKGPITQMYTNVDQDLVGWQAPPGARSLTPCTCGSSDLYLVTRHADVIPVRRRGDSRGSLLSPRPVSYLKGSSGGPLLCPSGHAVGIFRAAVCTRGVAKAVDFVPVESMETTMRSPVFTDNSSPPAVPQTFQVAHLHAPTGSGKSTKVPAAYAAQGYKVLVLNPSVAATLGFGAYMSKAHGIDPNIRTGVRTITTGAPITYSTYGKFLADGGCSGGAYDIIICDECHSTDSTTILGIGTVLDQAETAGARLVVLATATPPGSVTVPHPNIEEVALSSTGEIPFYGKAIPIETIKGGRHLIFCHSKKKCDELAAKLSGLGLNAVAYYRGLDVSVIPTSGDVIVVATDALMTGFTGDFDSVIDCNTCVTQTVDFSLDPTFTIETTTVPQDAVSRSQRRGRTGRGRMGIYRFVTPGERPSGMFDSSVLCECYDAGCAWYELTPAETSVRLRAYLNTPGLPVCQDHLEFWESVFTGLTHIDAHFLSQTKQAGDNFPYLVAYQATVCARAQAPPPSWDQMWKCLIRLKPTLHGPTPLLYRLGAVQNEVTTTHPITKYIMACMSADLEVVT

SMILES | AUC [1] [ng·h/mL] | Cmax [1] [ng/mL] | bioavailability [1] [%] | EC50 [2] [pM] | IC50 [3] [pM]
COc1ccc(-c2nnn(C3CC4C(=O)NC5(C(=O)NS(=O)(=O)C6CC6)CC5C=CCCCCCC(NC(=O)OC5CCCC5)C(=O)N4C3)n2)cc1 (stereo not drawn) [Example 36] | 52900 | 16100 | 76 | 800 | 100
COc1ccc(-n2nnc(C3CC4C(=O)NC5(C(=O)NS(=O)(=O)C6CC6)CC5C=CCCCCCC(NC(=O)OC5CCCC5)C(=O)N4C3)n2)cc1 (stereo not drawn) [Example 101] |  |  |  | 800 | 400
O=C(NC1CCCCCC=CC2CC2(C(=O)NS(=O)(=O)C2CC2)NC(=O)C2CC(n3nnc(-c4cccc5ccccc45)n3)CN2C1=O)OC1CCCC1 (stereo not drawn) [Example 117] |  |  |  | 800 | 200

— patent US8785377B2, “Tetrazolyl macrocyclic hepatitis C serine protease inhibitors” (Enanta Pharmaceuticals, Inc., priority 2006, dated 2014)
